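Results reflect a 48-hour exposure of cells in 96-well plates to compound at five concentrations. GI50 is the concentration that inhibits growth by half.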 The source made the active and inactive calls. Rule as the data show it: active = GI50 up to about 1.1 µM and inactive = higher.
Key:
Assay in all cases: NCI tumour cell line growth inhibition, 48 h
RXF 631 = tested on: RXF 631
DLD-1 = tested on: DLD-1
XF498 = tested on: XF498
M19-MEL = tested on: M19-MEL

Measured: GI50

CNc1ccc2ncccc2c1[N+](=O)[O-]
inactive: RXF 631 > 100 µM | DLD-1 > 100 µM | XF498 > 100 µM | M19-MEL > 100 µM

O=c1cc(-c2ccc(Cl)cc2)oc2cc(OCCCOc3ccc4c(=O)cc(-c5ccc(Cl)cc5)oc4c3)ccc12
inactive: RXF 631 > 100 µM | DLD-1 > 100 µM | XF498 > 100 µM | M19-MEL > 100 µM

— ChEMBL document CHEMBL1201862, “PubChem BioAssay data set” (2004)
